Source: PubChem BioAssay (NCI)
Values joined by “and” are separate entries in the source; they are usually repeats but may differ in a detail not shown here. Equal values may be shown once.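 Values below derive from 48-hour exposures of cells grown in 96-well plates, with endpoints linearly interpolated between the two concentrations bracketing the appropriate inhibition level. GI50: concentration for 50% inhibition of growth. TGI: total growth inhibition.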

How the values were obtained:
Test in all cases: NCI-60 cell line screen, 48 h
ACHN renal = tested on: ACHN renal
HL-60(TB) leukemia = tested on: HL-60(TB) leukemia
SK-MEL-2 melanoma = tested on: SK-MEL-2 melanoma
M14 melanoma = tested on: M14 melanoma
COLO 205 colon = tested on: COLO 205 colon
NCI-H522 lung = tested on: NCI-H522 lung
T-47D breast = tested on: T-47D breast
SR leukemia = tested on: SR leukemia
HOP-92 NSCLC = tested on: HOP-92 NSCLC
HT29 colon = tested on: HT29 colon
LOX IMVI melanoma = tested on: LOX IMVI melanoma
NCI-H460 lung = tested on: NCI-H460 lung
HCT-15 colon = tested on: HCT-15 colon
HS 578T breast = tested on: HS 578T breast
UACC-62 melanoma = tested on: UACC-62 melanoma
SNB-19 CNS = tested on: SNB-19 CNS
RPMI-8226 leukemia = tested on: RPMI-8226 leukemia
OVCAR-5 ovarian = tested on: OVCAR-5 ovarian
SK-OV-3 ovarian = tested on: SK-OV-3 ovarian
SF-295 CNS = tested on: SF-295 CNS
MDA-MB-231 breast = tested on: MDA-MB-231 breast
EKVX NSCLC = tested on: EKVX NSCLC
A549 NSCLC = tested on: A549 NSCLC
HOP-62 NSCLC = tested on: HOP-62 NSCLC
TK-10 renal = tested on: TK-10 renal
UO-31 renal = tested on: UO-31 renal
MCF7 breast = tested on: MCF7 breast
OVCAR-3 ovarian = tested on: OVCAR-3 ovarian
786-0 renal = tested on: 786-0 renal
U251 CNS = tested on: U251 CNS
OVCAR-8 ovarian = tested on: OVCAR-8 ovarian
HCC-2998 colon = tested on: HCC-2998 colon
SN12C renal = tested on: SN12C renal
MALME-3M melanoma = tested on: MALME-3M melanoma
UACC-257 melanoma = tested on: UACC-257 melanoma
RXF 393 renal = tested on: RXF 393 renal
A498 renal = tested on: A498 renal
SF-539 CNS = tested on: SF-539 CNS
K-562 leukemia = tested on: K-562 leukemia
PC-3 prostate = tested on: PC-3 prostate
SK-MEL-28 melanoma = tested on: SK-MEL-28 melanoma
IGROV1 ovarian = tested on: IGROV1 ovarian
OVCAR-4 ovarian = tested on: OVCAR-4 ovarian
MDA-MB-435 = tested on: MDA-MB-435
SW-620 colon = tested on: SW-620 colon
NCI-H23 lung = tested on: NCI-H23 lung
SNB-75 CNS = tested on: SNB-75 CNS
BT-549 breast = tested on: BT-549 breast
HCT-116 colon = tested on: HCT-116 colon
CAKI-1 renal = tested on: CAKI-1 renal
MOLT-4 leukemia = tested on: MOLT-4 leukemia
SK-MEL-5 melanoma = tested on: SK-MEL-5 melanoma
DU-145 prostate = tested on: DU-145 prostate
KM12 colon = tested on: KM12 colon
NCI/ADR-RES ovarian = tested on: NCI/ADR-RES ovarian
NCI-H226 lung = tested on: NCI-H226 lung
SF-268 CNS = tested on: SF-268 CNS
CCRF-CEM leukemia = tested on: CCRF-CEM leukemia

**Q.** What does the source list for `CNC(=O)c1ccccc1Nc1nc(Nc2ccc3c(c2OC)CCC[C@H](N2CCN(CCO)CC2)C3)ncc1Cl`?
**A.** GI50 (ACHN renal): 1160 nM and 1430 nM; TGI (ACHN renal): 11300 nM and > 10000 nM; GI50 (HL-60(TB) leukemia): 403 nM and 305 nM; TGI (HL-60(TB) leukemia): 2040 nM and 2380 nM; GI50 (SK-MEL-2 melanoma): 1560 nM and 613 nM; TGI (SK-MEL-2 melanoma): 5900 nM and 2700 nM; GI50 (M14 melanoma): 1020 nM and 510 nM; TGI (M14 melanoma): 3440 nM and 2780 nM; GI50 (COLO 205 colon): 335 nM and 295 nM; TGI (COLO 205 colon): 2200 nM and 1600 nM; GI50 (NCI-H522 lung): 1890 nM and 1120 nM; TGI (NCI-H522 lung): 10500 nM and 4320 nM; GI50 (T-47D breast): 2340 nM and 2950 nM; TGI (T-47D breast): 17800 nM and > 10000 nM; GI50 (SR leukemia): 44.9 nM and 128 nM; TGI (SR leukemia): 1960 nM and 2320 nM; GI50 (HOP-92 NSCLC): 154 nM and 148 nM; TGI (HOP-92 NSCLC): 1640 nM and 863 nM; GI50 (HT29 colon): 329 nM and 256 nM; TGI (HT29 colon): 10500 nM and 1270 nM; GI50 (LOX IMVI melanoma): 1310 nM and 1090 nM; TGI (LOX IMVI melanoma): 2770 nM and 2480 nM; GI50 (NCI-H460 lung): 892 nM and 574 nM; TGI (NCI-H460 lung): 13300 nM and > 10000 nM; GI50 (HCT-15 colon): 589 nM and 552 nM; TGI (HCT-15 colon): 6320 nM and 5690 nM; GI50 (HS 578T breast): 2130 nM and 2400 nM; TGI (HS 578T breast): 16200 nM and > 10000 nM; GI50 (UACC-62 melanoma): 1580 nM and 1350 nM; TGI (UACC-62 melanoma): 4020 nM and 3390 nM; GI50 (SNB-19 CNS): 2850 nM and 6490 nM; TGI (SNB-19 CNS): 14600 nM and > 10000 nM; GI50 (RPMI-8226 leukemia): 1800 nM and 2950 nM; TGI (RPMI-8226 leukemia): 7080 nM and > 10000 nM; GI50 (OVCAR-5 ovarian): 656 nM and 732 nM; TGI (OVCAR-5 ovarian): 15500 nM and > 10000 nM; GI50 (SK-OV-3 ovarian): 2980 nM and 2470 nM; TGI (SK-OV-3 ovarian): 14400 nM and 9230 nM; GI50 (SF-295 CNS): 1710 nM and 1490 nM; TGI (SF-295 CNS): 3790 nM and 3420 nM; GI50 (MDA-MB-231 breast): 1340 nM and 1620 nM; TGI (MDA-MB-231 breast): 3260 nM and 7040 nM; GI50 (EKVX NSCLC): 1750 nM and 1720 nM; TGI (EKVX NSCLC): 13700 nM and > 10000 nM; GI50 (A549 NSCLC): 1450 nM and 1440 nM; TGI (A549 NSCLC): 10200 nM and > 10000 nM; GI50 (HOP-62 NSCLC): 2840 nM and 2770 nM; TGI (HOP-62 NSCLC): 16800 nM and > 10000 nM; GI50 (TK-10 renal): 2970 nM and 656 nM; TGI (TK-10 renal): 18200 nM and > 10000 nM; GI50 (UO-31 renal): 1380 nM and 714 nM; TGI (UO-31 renal): 11600 nM and 7690 nM; GI50 (MCF7 breast): 370 nM and 374 nM; TGI (MCF7 breast): 11200 nM and > 10000 nM; GI50 (OVCAR-3 ovarian): 6740 nM and 3180 nM; TGI (OVCAR-3 ovarian): 20300 nM and > 10000 nM; GI50 (786-0 renal): 1480 nM and 1440 nM; TGI (786-0 renal): 4240 nM and 5060 nM; GI50 (U251 CNS): 2430 nM and 2270 nM; TGI (U251 CNS): 13300 nM and > 10000 nM; GI50 (OVCAR-8 ovarian): 4730 nM and 3250 nM; TGI (OVCAR-8 ovarian): 19900 nM and > 10000 nM; GI50 (HCC-2998 colon): 1890 nM and 1560 nM; TGI (HCC-2998 colon): 11500 nM and > 10000 nM; GI50 (SN12C renal): 2570 nM and 2590 nM; TGI (SN12C renal): 13300 nM and > 10000 nM; GI50 (MALME-3M melanoma): 875 nM and 1630 nM; TGI (MALME-3M melanoma): 3090 nM and > 10000 nM; GI50 (UACC-257 melanoma): 1520 nM and 1290 nM; TGI (UACC-257 melanoma): 3870 nM and 3420 nM; GI50 (RXF 393 renal): 1680 nM and 1980 nM; TGI (RXF 393 renal): 7300 nM and > 10000 nM; GI50 (A498 renal): 1380 nM and 2220 nM; TGI (A498 renal): 3230 nM and 9950 nM; GI50 (SF-539 CNS): 1950 nM and 4380 nM; TGI (SF-539 CNS): 5310 nM and > 10000 nM; GI50 (K-562 leukemia): 2250 nM and 2510 nM; TGI (K-562 leukemia): 5940 nM and 8550 nM; GI50 (PC-3 prostate): 3010 nM and 2060 nM; TGI (PC-3 prostate): 15500 nM and > 10000 nM; GI50 (SK-MEL-28 melanoma): 1390 nM and 1730 nM; TGI (SK-MEL-28 melanoma): 3110 nM and 4460 nM; GI50 (IGROV1 ovarian): 1020 nM and 801 nM; TGI (IGROV1 ovarian): 5750 nM and 4960 nM; GI50 (OVCAR-4 ovarian): 1720 nM and 3450 nM; TGI (OVCAR-4 ovarian): 13400 nM and > 10000 nM; GI50 (MDA-MB-435): 1330 nM and 901 nM; TGI (MDA-MB-435): 6920 nM and > 10000 nM; GI50 (SW-620 colon): 863 nM and 669 nM; TGI (SW-620 colon): 11300 nM and > 10000 nM; GI50 (NCI-H23 lung): 2500 nM and 1210 nM; TGI (NCI-H23 lung): 15000 nM and > 10000 nM; GI50 (SNB-75 CNS): 1880 nM and 2490 nM; TGI (SNB-75 CNS): 12600 nM and > 10000 nM; GI50 (BT-549 breast): 3840 nM and 3430 nM; TGI (BT-549 breast): 16000 nM and > 10000 nM; GI50 (HCT-116 colon): 1300 nM and 1050 nM; TGI (HCT-116 colon): 4240 nM and 3950 nM; GI50 (CAKI-1 renal): 690 nM and 1060 nM; TGI (CAKI-1 renal): 13100 nM and > 10000 nM; GI50 (MOLT-4 leukemia): 2450 nM and 2820 nM; TGI (MOLT-4 leukemia): 6750 nM and > 10000 nM; GI50 (SK-MEL-5 melanoma): 1740 nM and 1640 nM; TGI (SK-MEL-5 melanoma): 4870 nM and 5190 nM; GI50 (DU-145 prostate): 1170 nM and 888 nM; TGI (DU-145 prostate): 14800 nM and > 10000 nM; GI50 (KM12 colon): 3040 nM and 3230 nM; TGI (KM12 colon): 11200 nM and > 10000 nM; GI50 (NCI/ADR-RES ovarian): 4620 nM and 3010 nM; TGI (NCI/ADR-RES ovarian): 17900 nM and > 10000 nM; GI50 (NCI-H226 lung): 7650 nM and 2570 nM; TGI (NCI-H226 lung): 20800 nM and > 10000 nM; GI50 (SF-268 CNS): 3230 nM and 3220 nM; TGI (SF-268 CNS): 16500 nM and > 10000 nM; GI50 (CCRF-CEM leukemia): 2950 nM and 2970 nM; TGI (CCRF-CEM leukemia): 11000 nM and > 10000 nM
